In US20030104079A1, “Skin tissue regeneration promoters comprising ginsenoside Rb1” (Japan Science and Technology Corporation, Japan, priority 2000, published 2003):

How the values were obtained:
cuttings of pothos = experiment: Hydroponic culture of cuttings of pothos (rooting); design: species or system pothos (Epipremunum aureum, golden pothos); conditions: 100 fg/ml in water
Description: Next, we have examined whether ginsenosides, especially ginsenoside Rb1, can promote generation, regeneration or reconstruction of not only skin tissue or mouth mucosal tissue but also plant tissues. For that purpose, one of foliage plants, pothos is selected. Six cuttings resembled with each other from the parent plant of pothos in the room of one of the inventors (Tanaka) were collected. Among them, 3 cuttings were cultured by hydroponics with the use of only water and the remaining three were cultured in water containing ginsenoside Rb1 at a concentration of 100 fg/ml. FIG. 9 is a photograph in place of drawing.
Then, we have further continued cultivation of the above cuttings with hydroponics and on day 22, again photographs were taken. FIG. 10 is a photograph in place of drawing. Left photograph in FIG. 10 is the cuttings of pothos cultured with only water for 22 days and right photograph in FIG. 10 is the cuttings cultured with water containing the low concentration of ginsenoside Rb1 (100 fg/ml). Waters with or without containing ginsenoside Rb1 for hydroponics were exchanged once in a week. We have further made observation of rooting region on day 27.
Next, we have examined whether a crude saponin fraction of ginseng, like ginsenoside Rb1 at low concentrations, can promote, generation, regeneration or reconstruction of the cutting of pothos. For that purpose, two cuttings resembled with each other from the parent plant of pothos were collected. Among them, the one cutting was cultured with only water and the remaining one was cultured in water containing the crude saponin fraction of ginseng at a concentration of 1450 fg/ml. FIG. 11 is a photograph in place of drawing. Left photograph in FIG. 11 is the cutting cultured with only water and right photograph in FIG. 11 is the cutting cultured with water containing the crude saponin fraction of ginseng (1450 fg/ml). […]

[1] = test system: skin epidermal keratinocytes or hornified cells; conditions: extracellular fluid concentration 100 μg/ml; cited from earlier work
Bcl-xL gene = conditions: continuous intravenous administration 60 μg/day; cited from earlier work
cerebral infarct lesion = test system: cerebral infarct lesion; design: therapeutic effect for cerebral apoplexy and cerebral infarction: dose or concentration left out as unconfirmed; conditions: cited from earlier work
open wound of skin = experiment: Open wound healing by intravenous preinfusion before punch biopsy; format: in vivo, Wistar rats
Description: Then, we (the present inventors) have examined whether intravenous administration of ginsenoside Rb1 before preparation of open wound of skin can promote regeneration and/or reconstruction of the skin tissue. For that purpose, ginsenoside Rb1 (12 μg) dissolved in physiological saline was intravenously administered once into male Wistar rats (body weight about 300 g), under inhalation anesthesia, subsequently, continuous intravenous infusion of ginsenoside Rb1 (12 μg/day) was conducted for 4 days by using an Alza osmotic minipump. Thereafter, the punch biopsy with diameter 6 mm was performed in the dorsal skin region of animals under inhalation anesthesia to make open wound, and simultaneously, ginsenoside Rb1 was continuously infused intravenously for 3 days.
An equal amount of physiological saline was administered intravenously in the control animals, for which the same open wound was prepared to leave the animals as they were.
On day 2 after finishing continuous intravenous administration of ginsenoside Rb1 or physiological saline (i.e. on day 5 after preparation of the open wound), the animals were anesthetized with pentobarbital and fixed transcardially with perfusion of 0.1 M phosphate buffer containing 4% paraformaldehyde. Thereafter, the skin tissue including the open wound was dissected out, post-fixed and embedded in paraffin according to the conventional method. Paraffin sections 5 μm thick were cut and stained with hematoxylin-eosin (HE). FIG. 3 is a photograph in place of drawing. […] “i” indicates incrustation or eschar, “ep” indicates stratified squamous epithelium of epidermis, and “by” indicates blood vessel.
Intravenous administration of physiological saline solution containing ginsenoside Rb1 (12 μg) was conducted once in male Wistar rats weighing about 300 g under inhalation anesthesia, subsequently, ginsenoside Rb1 was continuously infused intravenously for 4 days through an Alza osmotic minipump at a dose of 12 μg/day. […]

## CC(C)=CCC[C@](C)(O[C@@H]1O[C@H](CO[C@@H]2O[C@H](CO)[C@@H](O)[C@H](O)[C@H]2O)[C@@H](O)[C@H](O)[C@H]1O)[C@H]1CC[C@]2(C)[C@@H]1[C@H](O)C[C@@H]1[C@@]3(C)CC[C@H](O[C@@H]4O[C@H](CO)[C@@H](O)[C@H](O)[C@H]4O[C@@H]4O[C@H](CO)[C@@H](O)[C@H](O)[C@H]4O)C(C)(C)[C@@H]3CC[C@]12C [ginsenoside Rb1]
Cuttings of pothos; 22 days
  generation or regeneration of roots (FIG. 10): many roots were generated or regenerated
Cuttings of pothos; day 13, vs water alone
  growth of root (FIG. 9): growth of root is promoted
Cuttings of pothos; day 27, none on cuttings in water only
  secondary rooting arising from the primary rooting regions: clearly observed on all three cuttings
[1]
  division and proliferation of skin epidermal keratinocytes or hornified cells: can promote division and proliferation of skin epidermal keratinocytes or hornified cells
Bcl-xL gene
  expression of cell death-suppressing factor Bcl-xL gene in brain and nervous tissues: caused an increase in the expression
Cerebral infarct lesion; continuous intravenous administration 6 μg/day
  therapeutic effect for cerebral infarction and cerebral apoplexy: superior therapeutic effect
Cerebral infarct lesion; continuous intravenous administration
  therapeutic effect for cerebral apoplexy and cerebral infarction: superior therapeutic effect
Cerebral infarct lesion; intravenous continuous administration of low dosages, JP Appln. No. Hei 10-365560
  volume of cerebral infarct lesion: about ¼
Open wound of skin; 12 μg/day iv 4 days before and 3 days after open wound, day 5 after open wound
  regeneration, generation and reconstruction of ruptured and excised blood vessels (FIG. 3): facilitated
Open wound of skin; 12 μg/day iv 4 days before and 3 days after open wound, day 5 after open wound, vs physiological saline
  regeneration and reconstruction of skin tissue (FIG. 3): regeneration and reconstruction of skin tissue were obviously promoted
Open wound of skin; continuous intravenous administration of low dosages
  effect on healthy tissues, ginsenoside Rb1-administered vs physiological saline-administered case: no clear difference was observed
